Reference: ChEMBL document CHEMBL3507680, “University of Dundee, Gates Library screen for HepG2 cell viability”

Assay: Human HepG2 cell viability assay in 384 well format
Assay type: toxicity, cell-based
Design: dose 125 nL, time 70.5 hour; cytotoxicity at 70.5 h: concentration not given beside the values
Settings: HepG2 cells, read-out: Inhibition

Q: With `Nc1nccnc1C1CN(C(=O)c2cnccn2)CCO1` (stereo unspecified) as the compound, how does the cytotoxicity at 70.5 h read?
A: -4.25%

Q: For `O=C(N[C@@H]1CCC[C@@H](N2CCOCC2)[C@@H]1O)c1cnn2cccnc12`, which cytotoxicity at 70.5 h is on record?
A: -1.42%

Q: Which cytotoxicity at 70.5 h does the source give for `Cc1noc(C)c1-c1ccc(C2CCCN2C(=O)c2cnn(C)c2)nc1` (stereo unspecified) here?
A: -0.651%

Q: For `Cc1nc2ccc(C(=O)N3C[C@@H](O)[C@H](N4CCN(C)CC4)C3)cc2[nH]1`, which cytotoxicity at 70.5 h is on record?
A: -4.75%

Q: Which cytotoxicity at 70.5 h does the source give for `CC(=O)N1CCc2nc(C3CCN(C(=O)c4ccccc4)C3)ncc2C1` (stereo unspecified) here?
A: 0.561%

Q: Which cytotoxicity at 70.5 h does the source give for `COCCN1CCN(Cc2cnc(C(C)C)nc2)CC1` here?
A: 16.4%

Q: Which cytotoxicity at 70.5 h does the source give for `CCc1ncc(CN2CCN(CCOC)CC2)cn1` here?
A: 7.17%

Q: Which cytotoxicity at 70.5 h does the source give for `Cc1nc2ccc(C(=O)N3CC[C@H](O)[C@@H](N4CCOCC4)CC3)cc2[nH]1` here?
A: 0.0805%

Q: With `CN(C(=O)c1ccon1)[C@@H]1CCC[C@@H](Oc2ccccc2)[C@@H]1O` as the compound, how does the cytotoxicity at 70.5 h read?
A: -1.37%

Q: Which cytotoxicity at 70.5 h does the source give for `O[C@H]1CN(Cc2cccc(C(F)(F)F)c2)CC[C@@]12CCCO2` here?
A: 15.6%

Q: With `CN1CCCC(c2ccnc(C(=O)NCC3CC3)c2)C1` (stereo unspecified) as the compound, how does the cytotoxicity at 70.5 h read?
A: -2.35%

Q: With `CS(=O)(=O)c1cn[nH]c1C1CCCCN1C(=O)Cc1cccnc1` (stereo unspecified) as the compound, how does the cytotoxicity at 70.5 h read?
A: 5.76%

Q: Which cytotoxicity at 70.5 h does the source give for `CNc1cncc(C2CCCN2S(=O)(=O)c2ccccc2F)n1` (stereo unspecified) here?
A: -0.0855%

Q: For `Cn1nccc1CCC(=O)N1CCOC(c2cnccn2)C1` (stereo unspecified), which cytotoxicity at 70.5 h is on record?
A: -12.6%

Q: With `Fc1ccccc1OCCc1cc(C2CCNC2)n[nH]1` (stereo unspecified) as the compound, how does the cytotoxicity at 70.5 h read?
A: -4.09%

Q: Which cytotoxicity at 70.5 h does the source give for `Cc1ncc(CN2CCOC(c3ccc(-c4cnn(C)c4)cn3)C2)s1` (stereo unspecified) here?
A: -6.63%

Q: Which cytotoxicity at 70.5 h does the source give for `Cc1noc(C2(C)CCCN(C(=O)c3cccnc3)C2)n1` (stereo unspecified) here?
A: 11.1%

Q: For `O=C(CCc1cccnc1)N1CCC(c2cnccn2)CC1`, which cytotoxicity at 70.5 h is on record?
A: -6.11%

Q: Which cytotoxicity at 70.5 h does the source give for `Cc1n[nH]c(C)c1-c1cnc(CC2CCCN(S(C)(=O)=O)C2)cn1` (stereo unspecified) here?
A: -10.2%

Q: For `Cc1cc(N2CC(c3n[nH]c4nccnc34)C2)ncn1`, which cytotoxicity at 70.5 h is on record?
A: -9.37%

Q: Which cytotoxicity at 70.5 h does the source give for `CNC(=O)c1cn[nH]c1C1(C)CCCN(CC2(O)CCCCC2)C1` (stereo unspecified) here?
A: -6.79%

Q: With `Cc1c(C(=O)N2CCC(O)(CN(C)C)C2)c2ccccc2n1C` (stereo unspecified) as the compound, how does the cytotoxicity at 70.5 h read?
A: 11%

Q: With `CCc1nnc(Nc2cccc(C3CCN(C)CC3)n2)s1` as the compound, how does the cytotoxicity at 70.5 h read?
A: 35%

Q: Which cytotoxicity at 70.5 h does the source give for `c1cnc(C2CCCN2c2cnccn2)cn1` (stereo unspecified) here?
A: 6.08%

Q: Which cytotoxicity at 70.5 h does the source give for `CCc1nnc(Nc2cccc(C3CCN(C(C)=O)CC3)n2)s1` here?
A: 44.9%

Q: Which cytotoxicity at 70.5 h does the source give for `CC(=O)N1CCCC1c1ccnc(Nc2cncnc2)n1` (stereo unspecified) here?
A: -15.4%

Q: For `Cc1nc(Nc2ncccn2)cc(C2CCCN2C(C)C)n1` (stereo unspecified), which cytotoxicity at 70.5 h is on record?
A: -14%

Q: With `Cc1nc(Nc2cnccn2)cc(C2CCCN(C(C)C)C2)n1` (stereo unspecified) as the compound, how does the cytotoxicity at 70.5 h read?
A: -8.23%

Q: Which cytotoxicity at 70.5 h does the source give for `Cc1ccccc1S(=O)(=O)N1CCC(c2[nH]ncc2C)C1` (stereo unspecified) here?
A: -8.88%

Q: For `COC(=O)N1CCCN(Cn2nc(C)c(Br)c2C)CC1`, which cytotoxicity at 70.5 h is on record?
A: 31.2%

Q: Which cytotoxicity at 70.5 h does the source give for `CCc1noc(CN2CCOC3(CCCC3)C2)n1` here?
A: -2.11%

Q: With `COCCCNC(=O)CN(C)C(C)c1nc(C(C)C)no1` (stereo unspecified) as the compound, how does the cytotoxicity at 70.5 h read?
A: -4.17%

Q: With `CCC(=O)N1CCCN(Cn2nc(C)c(Br)c2C)CC1` as the compound, how does the cytotoxicity at 70.5 h read?
A: -0.667%

Q: For `O=C(CSCCN1CCOCC1)N1CCc2ccccc2C1`, which cytotoxicity at 70.5 h is on record?
A: 17.6%

Q: With `O=C(CSCCN1CCOCC1)N1CCCCCC1` as the compound, how does the cytotoxicity at 70.5 h read?
A: 29.9%

Q: For `Cc1nc(CN2CCCC(C)(CO)C2)no1` (stereo unspecified), which cytotoxicity at 70.5 h is on record?
A: -4.42%

Q: Which cytotoxicity at 70.5 h does the source give for `CC(=O)c1cc(Br)cc(F)c1OCC(=O)NC(C)C` here?
A: -4.15%

Q: For `Cn1ccnc1S(=O)(=O)C(C(=O)N1CCCCC1)c1ccccc1` (stereo unspecified), which cytotoxicity at 70.5 h is on record?
A: 23.2%

Q: With `Cc1nn(C)c(C)c1NC(=O)CN1CCOC(CN(C)C)C1` (stereo unspecified) as the compound, how does the cytotoxicity at 70.5 h read?
A: 5.23%

Q: With `Cc1cccc(-c2ccc(C(=O)N3CCN(C4CC4)CC3)c(=O)[nH]2)c1` as the compound, how does the cytotoxicity at 70.5 h read?
A: 22.8%

Q: For `CC(=O)N1CCN(C(=O)c2ccc(-c3cccc(C)c3)[nH]c2=O)CC1`, which cytotoxicity at 70.5 h is on record?
A: -2.2%

Q: With `COc1ccc(CN2CCC(C(N)=O)C2)c(Br)c1OC` (stereo unspecified) as the compound, how does the cytotoxicity at 70.5 h read?
A: 0.0817%

Q: With `COc1ccccc1CC(C)CC(=O)O` (stereo unspecified) as the compound, how does the cytotoxicity at 70.5 h read?
A: -11.2%

Q: Which cytotoxicity at 70.5 h does the source give for `CC(C)c1cc(NC(=O)CNC2CCc3nc(C(C)C)nn3C2)on1` (stereo unspecified) here?
A: 4.46%

Q: With `CS(=O)(=O)CCn1ccc(NC(=O)Cc2c[nH]c3ccccc23)n1` as the compound, how does the cytotoxicity at 70.5 h read?
A: 5.18%

Q: Which cytotoxicity at 70.5 h does the source give for `COc1cccc(C(=O)N2CCc3nc(C4CCCN4)ncc3C2)c1` (stereo unspecified) here?
A: -1.65%
